Data as given in EP4772513A1, “PI3K-ALPHA INHIBITOR AND USE THEREOF” (TYK Medicines (Zhengzhou), Inc., priority 2023, dated 2025).

Key:
[1] = system: Human breast cancer cells SK-BR-3 (WT); assay: Cell proliferation inhibition assay (CTG), SK-BR-3 (WT); assay type: cell-based; settings: SK-BR-3 (WT) cells, 3 days incubation, CTG readout
Experimental: (§1) Cell Proliferation Inhibition Assay
(§2) 1. Experimental Materials
(§3) II. Experimental Protocol
(§4) • a) Cell suspension was prepared; • b) The medium was removed from the culture flask; • c) The cells were rinsed once with PBS; • d) Trypsin was added for digestion, and the cells were centrifuged and collected; • e) The cells were resuspended in medium, counted and adjusted to an appropriate concentration; • f) 100 µL of cell suspension was added to each well of a 96-well plate. One plate was used for each cell line, which was incubated overnight in a 37 °C, 5% CO2 incubator.
(§5) 2. Treatment of Compounds
(§6) • a) Serial dilutions of the test compounds were prepared: The compound was prepared as a 10 mM stock solution. 18 µL of the stock solution was dissolved in 982 µL of the culture medium containing DMSO, followed by 4-fold serial dilutions in culture medium containing 0.5% DMSO to give 9 concentrations. The concentrations of the diluted compound were as follows: 180000 nM, 45000 nM, 11250 nM, 2812.5 nM, 703.13 nM, 175.78 nM, 43.95 nM, 10.99 nM, and 2.75 nM. • b) After thorough mixing, 20 µL of each compound solution was added to the cell plate containing 100 µL of cells per well. Each concentration was tested in triplicate. Final concentrations of the compound were as follows: 30000 nM, 7500 nM, 1875 nM, 468.75 nM, 117.188 nM, 29.30 nM, 7.32 nM, 1.83 nM, and 0.46 nM. • c) The cells were transferred into the incubator and incubated for 3 days.
(§7) The cell plate was removed, 25 µL of CTG reagent was added to each well of the 96-well plate, the mixture was shook on a plate shaker at room temperature for 10 minutes, and the plate was read.
(§8) The cell survival rate was calculated using the following formula (% Cell Survival): % Cell Survival = 100% × (OD_Sample−OD_LCave)/(OD_HC−OD_LCave) [formula] • OD_HC: Reading of the 0.1‰ DMSO control group • OD_Sample: Reading of cells treated with compound • OD_LCave: Reading of blank medium
(§9) Analyzed by Prism: Dose-response-Inhibition - Log (inhibitor) vs response (three parameters for the best fit).

[2] = system: Human breast cancer cells T47D (H1047R); assay: Cell proliferation inhibition assay (CTG), T47D (H1047R); assay type: cell-based; settings: 3 days incubation, CTG readout
Experimental: as §1, §2, §3, §4, §5, §6, §7, §8, §9

Row | Compound | IC50 ([1]; Homo sapiens, 72 h) [nM] | IC50 ([2]; Homo sapiens, 72 h) [nM] | IC50 [1] [nM] | IC50 [2] [nM]
1 | CC(Nc1ccccc1C(=O)O)c1cc(F)cc2c(=O)n3c(nc12)CN(c1cccnc1)CC3 (single isomer, unassigned) [Compound C15] | > 5000 | 500 to 2000 | – | –
2 | CC(Nc1ccccc1C(=O)O)c1cc(F)cc2c(=O)c3c(oc12)CN(S(=O)(=O)C(C)C)CC3 (single isomer, unassigned) [Compound C39] | > 5000 | ≤ 500 | – | –
3 | CC(Nc1ccccc1C(=O)O)c1cc(F)cc2c(=O)c3c(oc12)CN(C(=O)N1CCCC1)CC3 (single isomer, unassigned) [Compound C41] | > 5000 | ≤ 500 | – | –
4 | CC(Nc1ccccc1C(=O)O)c1cc(F)cc2c(=O)c3c(oc12)CN(C(=O)N1CCC1)CC3 (single isomer, unassigned) [Compound C47] | > 5000 | ≤ 500 | – | –
5 | Cc1cc(C(C)Nc2ccc(Cl)nc2C(=O)O)c2oc3c(c(=O)c2c1)CCN(S(=O)(=O)C(C)C)C3 (single isomer, unassigned) [Compound C49] | > 5000 | ≤ 500 | – | –
6 | Cc1cc(C(C)Nc2ccccc2C(=O)O)c2oc3c(c(=O)c2c1)CCN(C(=O)N1CCCC1)C3 (single isomer, unassigned) [Compound C50] | > 5000 | ≤ 500 | – | –
7 | Cc1cc(C(C)Nc2ccccc2C(=O)O)c2oc3c(c(=O)c2c1)CCN(S(=O)(=O)N1CCCC1)C3 (single isomer, unassigned) [Compound C56] | > 5000 | ≤ 500 | – | –
8 | Cc1cc(C(C)Nc2ccccc2C(=O)O)c2oc3c(c(=O)c2c1)CCN(S(=O)(=O)C1CC1)C3 (single isomer, unassigned) [Compound C59] | > 5000 | ≤ 500 | – | –
9 | Cc1cc(C(C)Nc2ccccc2C(=O)O)c2oc3c(c(=O)c2c1)CCN(S(=O)(=O)c1ccccc1)C3 (single isomer, unassigned) [Compound C61] | > 5000 | ≤ 500 | – | –
10 | CC(Nc1ccccc1C(=O)O)c1cc(F)cc2c(=O)c3c(oc12)C(C)N(S(=O)(=O)C(C)C)CC3 (single isomer, unassigned) [Compound C163] | > 5000 | ≤ 500 | – | –
11 | Cc1cc(C(C)Nc2ccc(Cl)nc2C(=O)O)c2nc3c(c(=O)n2c1)CCN(S(=O)(=O)c1c(C)cnn1C)C3 (single isomer, unassigned) [Compound C184] | > 5000 | ≤ 500 | – | –
12 | Cc1cc(C(C)Nc2ccccc2C(=O)O)c2nc3c(c(=O)n2c1)CCN(S(=O)(=O)C(C)C)C3 (single isomer, unassigned) [Compound C196] | > 5000 | ≤ 500 | – | –
13 | Cc1cc(C(C)Nc2ccccc2C(=O)O)c2oc3c(c(=O)c2c1)CCN(C(c1ccccc1)C(F)(F)F)C3 (single isomer, unassigned) [Compound C207] | > 5000 | ≤ 500 | – | –
14 | Cc1cc(C(C)Nc2ccccc2C(=O)O)c2oc3c(c(=O)c2c1)CCN(C(c1ccccc1)C(F)(F)F)C3 (single isomer, unassigned) [Compound C209] | – | – | > 5000 | ≤ 500
15 | C[C@@H](Nc1ccc(Cl)nc1C(=O)O)c1cc(Cl)cc2c(=O)c3c(oc12)CN(S(=O)(=O)N1CCOCC1)CC3 [Compound C66] | > 5000 | ≤ 500 | – | –
16 | C[C@@H](Nc1ccc(Cl)nc1C(=O)O)c1cc(F)cc2c(=O)c3c(oc12)CN(S(=O)(=O)N1CCOCC1)CC3 [Compound C67] | > 5000 | ≤ 500 | – | –
17 | C[C@@H](Nc1ccc(Cl)nc1C(=O)O)c1cc(F)cc2c(=O)c3c(oc12)CN(S(=O)(=O)C1CC1)CC3 [Compound C68] | > 5000 | 500 to 2000 | – | –
18 | CC(C)S(=O)(=O)N1CCc2c(oc3c([C@@H](C)Nc4ccc(Cl)nc4C(=O)O)cc(F)cc3c2=O)C1 [Compound C72] | > 5000 | 500 to 2000 | – | –
19 | C[C@@H](Nc1ccc(Cl)nc1C(=O)O)c1cc(F)cc2c(=O)c3c(oc12)CN(S(=O)(=O)N1CCC1)CC3 [Compound C73] | > 5000 | 500 to 2000 | – | –

Row | Compound | IC50 ([1]; Homo sapiens, 72 h) [nM] | IC50 ([2]; Homo sapiens, 72 h) [nM] | IC50 [1] [nM] | IC50 [2] [nM]
20 | C[C@@H](Nc1ccc(Cl)nc1C(=O)O)c1cc(F)cc2c(=O)c3c(oc12)CN(S(=O)(=O)c1ccccc1)CC3 [Compound C77] | > 5000 | ≤ 500 | – | –
21 | C[C@@H](Nc1ccccc1C(=O)O)c1cc(F)cc2c(=O)c3c(oc12)CN(S(=O)(=O)C1CC1)CC3 [Compound C78] | > 5000 | 500 to 2000 | – | –
22 | C[C@@H](Nc1ccccc1C(=O)O)c1cc(F)cc2c(=O)c3c(oc12)CN(S(=O)(=O)N1CCOCC1)CC3 [Compound C80] | > 5000 | ≤ 500 | – | –
23 | Cc1cc([C@@H](C)Nc2ccc(Cl)nc2C(=O)O)c2oc3c(c(=O)c2c1)CCN(S(=O)(=O)N1CCOCC1)C3 [Compound C81] | > 5000 | 500 to 2000 | – | –
24 | Cc1cc([C@@H](C)Nc2ccc(Cl)nc2C(=O)O)c2oc3c(c(=O)c2c1)CCN(S(=O)(=O)c1ccccc1)C3 [Compound C82] | > 5000 | ≤ 500 | – | –
25 | C[C@@H](Nc1ccc(Cl)nc1C(=O)O)c1cc(F)cc2c(=O)c3c(oc12)CN(C(=O)N1CC(F)C1)CC3 [Compound C83] | > 5000 | 500 to 2000 | – | –
26 | C[C@@H](Nc1ccccc1C(=O)O)c1cc(F)cc2c(=O)c3c(oc12)CN(S(=O)(=O)c1ccccc1)CC3 [Compound C89] | > 5000 | ≤ 500 | – | –
27 | C[C@@H](Nc1ccc(Cl)nc1C(=O)O)c1cc(F)cc2c(=O)c3c(oc12)CN(S(=O)(=O)c1ccccc1C#N)CC3 [Compound C90] | > 5000 | ≤ 500 | – | –
28 | C[C@@H](Nc1ccc(Cl)nc1C(=O)O)c1cc(F)cc2c(=O)c3c(oc12)CN(S(=O)(=O)c1cccc(C#N)c1)CC3 [Compound C91] | > 5000 | 500 to 2000 | – | –
29 | C[C@@H](Nc1ccc(Cl)nc1C(=O)O)c1cc(F)cc2c(=O)c3c(oc12)CN(S(=O)(=O)c1ccc(C#N)cc1)CC3 [Compound C92] | > 5000 | 500 to 2000 | – | –
30 | C[C@@H](Nc1ccc(Cl)nc1C(=O)O)c1cc(F)cc2c(=O)c3c(oc12)CN(S(=O)(=O)c1ccccc1F)CC3 [Compound C93] | > 5000 | ≤ 500 | – | –
31 | C[C@@H](Nc1ccc(Cl)nc1C(=O)O)c1cc(F)cc2c(=O)c3c(oc12)CN(S(=O)(=O)c1cccc(F)c1)CC3 [Compound C94] | > 5000 | ≤ 500 | – | –
32 | C[C@@H](Nc1ccc(Cl)nc1C(=O)O)c1cc(F)cc2c(=O)c3c(oc12)CN(S(=O)(=O)c1ccc(F)cc1)CC3 [Compound C95] | > 5000 | ≤ 500 | – | –
33 | COc1ccccc1S(=O)(=O)N1CCc2c(oc3c([C@@H](C)Nc4ccc(Cl)nc4C(=O)O)cc(F)cc3c2=O)C1 [Compound C96] | > 5000 | ≤ 500 | – | –
34 | COc1cccc(S(=O)(=O)N2CCc3c(oc4c([C@@H](C)Nc5ccc(Cl)nc5C(=O)O)cc(F)cc4c3=O)C2)c1 [Compound C97] | > 5000 | ≤ 500 | – | –
35 | COc1ccc(S(=O)(=O)N2CCc3c(oc4c([C@@H](C)Nc5ccc(Cl)nc5C(=O)O)cc(F)cc4c3=O)C2)cc1 [Compound C98] | > 5000 | ≤ 500 | – | –
36 | C[C@@H](Nc1ccc(Cl)nc1C(=O)O)c1cc(F)cc2c(=O)c3c(oc12)CN(S(=O)(=O)c1nccn1C)CC3 [Compound C101] | > 5000 | 500 to 2000 | – | –
37 | C[C@@H](Nc1ccc(Cl)nc1C(=O)O)c1cc(F)cc2c(=O)c3c(oc12)CN(S(=O)(=O)C1CCCC1)CC3 [Compound C108] | > 5000 | 500 to 2000 | – | –
38 | C[C@@H](Nc1ccc(Cl)nc1C(=O)O)c1cc(F)cc2c(=O)c3c(oc12)CN(S(=O)(=O)C1CCCCC1)CC3 [Compound C109] | > 5000 | ≤ 500 | – | –
